# Read-outs that look alike come from different tables or passages of the source.
# Target: T1, BTK-WT (Homo sapiens, UniProt Q06187)
# T1 construct: purified from insect cells as a full-length construct containing an N-terminal 6X-His tag; His6 (N); made in house; host or cells: insect cells (baculovirus Sf21 in Method B)
# Test: Btk in vitro inhibitory activity (one of Method A TR-FRET, Method B electrophoretic mobility shift, Method C radiometric filter binding)
# Type: biochemical
# Details: read-out: IC50 BTK-WT
# T1 sequence (Q06187 whole entry): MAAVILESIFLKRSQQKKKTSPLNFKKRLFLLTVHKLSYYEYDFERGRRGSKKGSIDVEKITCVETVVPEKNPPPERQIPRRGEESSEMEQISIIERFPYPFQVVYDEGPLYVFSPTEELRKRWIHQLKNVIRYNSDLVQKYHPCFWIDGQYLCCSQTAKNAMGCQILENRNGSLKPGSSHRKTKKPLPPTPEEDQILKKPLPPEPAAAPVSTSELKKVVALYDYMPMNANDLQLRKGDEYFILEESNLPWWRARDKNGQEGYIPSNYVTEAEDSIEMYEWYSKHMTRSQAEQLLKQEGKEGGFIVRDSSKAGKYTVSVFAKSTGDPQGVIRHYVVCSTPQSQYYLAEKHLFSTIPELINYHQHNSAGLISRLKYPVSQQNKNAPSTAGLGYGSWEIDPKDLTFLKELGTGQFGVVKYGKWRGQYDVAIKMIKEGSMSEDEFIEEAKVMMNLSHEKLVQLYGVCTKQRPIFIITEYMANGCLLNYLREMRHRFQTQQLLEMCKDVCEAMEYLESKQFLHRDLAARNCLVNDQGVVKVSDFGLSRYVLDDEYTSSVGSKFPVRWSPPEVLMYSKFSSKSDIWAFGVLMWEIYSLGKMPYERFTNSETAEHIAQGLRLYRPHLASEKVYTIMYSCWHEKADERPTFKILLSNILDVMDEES
"IC50 (E compounds, Table 17) [nM]","IC50 (Table 13, A compounds) [nM]",Structure (SMILES)
≤ 10,,"C[C@@H]1[C@H](NC(=O)c2cc(C(C)(C)C)nn2C)CCCN1c1cnc(C(N)=O)c(Nc2cnn(C)c2)n1 [Example E-146, 5-((2R,3R)-3-(3-(tert-butyl)-1-methyl-1H-pyrazole-5-carboxamido)-2-methylpiperidin-1-yl)-3-((1-methyl-1H-pyrazol-4-yl)amino)pyrazine-2-carboxamide]"
,≤ 10,"COCCN(C)Cc1cc(Nc2nc(N3CCC[C@@H](NC(=O)c4ccc(C5CC5)cc4)[C@H]3C)cnc2C(N)=O)sn1 [Example A-185, 5-((2R,3R)-3-(4-cyclopropylbenzamido)-2-methylpiperidin-1-yl)-3-(3-(((2-methoxyethyl)(meth-yl)amino)meth-yl)isothiazol-5-ylamino)pyr-azine-2-carboxamide]"
,≤ 10,"C[C@@H]1[C@H](NC(=O)c2ccc(C3CC3)cc2F)CCCN1c1cnc(C(N)=O)c(Nc2cc(CN3CCOCC3)ns2)n1 [Example A-128, 5-[(2R,3R)-3-(4-cyclopropyl-2-fluorobenzamido)-2-methylpiperidin-1-yl]-3-{[3-(morpholin-4-ylmethyl)-1,2-thiazol-5-yl]amino}pyrazine-2-carboxamide]"
,≤ 10,"C[C@@H]1[C@H](NC(=O)c2ccc(C3CC3)cc2)CCCN1c1cnc(C(N)=O)c(Nc2cnn(C)c2)n1 [Example A-169, 5-[(2R,3R)-3-(4-cyclopropylbenzamido)-2-methylpiperidin-1-yl]-3-[(1-methyl-1H-pyrazol-4-yl)amino]pyrazine-2-carboxamide]"
≤ 10,,"C[C@@H]1[C@H](NC(=O)c2ccc(C(C)(C)N3CCCC3)cc2)CCCN1c1cnc(C(N)=O)c(Nc2cnn(C)c2)n1 [Example E-143, 3-((1-methyl-1H-pyrazol-4-yl)amino)-5-((2R,3R)-2-methyl-3-(4-(2-(pyrrolidin-1-yl)propan-2-yl)benzamido)piperidin-1-yl)pyrazine-2-carboxamide]"
≤ 10,,"C=CC(=O)N1CC[C@@H](N(C)c2cnc(C(N)=O)c(Nc3ccc(C4CCN(C5CCCC5)CC4)cc3)n2)C1 [Example E-109, (R)-5-((1-acryloylpyrrolidin-3-yl)(methyl)amino)-3-(4-(1-cyclopentylpiperidin-4-yl)phenylamino)pyrazine-2-carboxamide]"
≤ 10,,"C[C@@H]1[C@H](NC(=O)c2ccc(C3CC3)cc2)CCCN1c1cnc(C(N)=O)c(Nc2ccc(OC3CCN(C)C3)cc2)n1 (stereo partly drawn) [Example E-136, 5-((2R,3R)-3-(4-cyclopropylbenzamido)-2-methylpiperidin-1-yl)-3-((4-((1-methylpyrrolidin-3-yl)oxy)phenyl)amino) pyrazine-2-carboxamide]"
,≤ 10,"C[C@@H]1[C@H](NC(=O)c2ccc(C3CC3)c(Cl)c2)CCCN1c1cnc(C(N)=O)c(Nc2ccc(N3CCN(C)CC3)cc2)n1 [Example A-189, 5-((2R,3R)-3-(3-chloro-4-cyclopropylbenzamido)-2-methylpiperidin-1-yl)-3-(4-(4-methylpiperazin-1-yl)phenylamino)pyrazine-2-carboxamide]"
,≤ 10,"C[C@@H]1[C@H](NC(=O)c2ccc(C3CC3)cn2)CCCN1c1cnc(C(N)=O)c(Nc2ccc(N3CCN(C)CC3)cc2)n1 [Example A-179, 5-[(2R,3R)-3-(5-cyclopropyl-pyridine-2-amido)-2-methylpiperidin-1-yl]-3-{[4-(4-methylpiperazin-1-yl)phenyl]amino}pyrazine-2-carboxamide]"
,≤ 10,"C[C@@H]1[C@H](NC(=O)c2ccc(C3CC3)cc2F)CCCN1c1cnc(C(N)=O)c(Nc2ccc(CN3CCN(C)CC3)cc2)n1 [Example A-106, 5-[(2R,3R)-3-(4-cyclopropyl-2-fluorobenzamido)-2-methylpiperidin-1-yl]-3-({4-[(4-methylpiperazin-1-yl)meth-yl]phenyl}amino)pyrazine-2-carboxamide]"
≤ 10,,"C=CC(=O)N1CC[C@@H](N(C)c2cnc(C(N)=O)c(Nc3ccc(C4CCN(C5CC5)CC4)cc3)n2)C1 [Example E-121, (R)-5-((1-acryloylpyrrolidin-3-yl)(methyl)amino)-3-(4-(1-cyclopropylpiperidin-4-yl)phenylamino)pyrazine-2-carboxamide]"
,≤ 10,"C[C@@H]1[C@H](NC(=O)c2ccc(C3CC3)cc2F)CCCN1c1cnc(C(N)=O)c(Nc2ccc(N3CCN(C4CCCC4)CC3)cc2)n1 [Example A-125, 3-{[4-(4-cyclopentylpiperazin-1-yl)phenyl]amino}-5-[(2R,3R)-3-(4-cyclopropyl-2-fluorobenzamido)-2-methylpiperidin-1-yl]pyrazine-2-carboxamide]"
,10 to 100,"C[C@@H]1[C@H](NC(=O)c2ccc(C3CC3)cc2)CCCN1c1cnc(C(N)=O)c(Nc2cnn(CCN(C)C)c2)n1 [Example A-182, 5-[(2R,3R)-3-(4-cyclopropylbenzamido)-2-methylpiperidin-1-yl]-3-({1-[2-(dimethylamino)ethyl]-1H-pyrazol-4-yl}amino)pyrazine-2-carboxamide]"
,≤ 10,"C[C@@H]1[C@H](NC(=O)c2ccc(C3CC3)cc2F)CCCN1c1cnc(C(N)=O)c(Nc2ccc(S(=O)(=O)N3CCCC3)cc2)n1 [Example A-175, 5-[(2R,3R)-3-(4-cyclopropyl-2-fluorobenzamido)-2-methylpiperidin-1-yl]-3-{[4-(pyrrolidine-1-sulfonyl)phenyl]amino}pyr-azine-2-carboxamide]"
,≤ 10,C[C@@H]1[C@H](NC(=O)c2ccc(C3CC3)cc2)CCCN1c1cnc(C(N)=O)c(Nc2cnn(C3CCN(C)CC3)c2)n1 [Example A-173]
,≤ 10,"C[C@@H]1[C@H](NC(=O)c2ccc(C3CC3)cc2F)CCCN1c1cnc(C(N)=O)c(Nc2ccc(N3CCN(C)C[C@@H]3C)cc2)n1 [Example A-176, 5-[(2R,3R)-3-(4-cyclopropyl-2-fluorobenzamido)-2-methylpiperidin-1-yl]-3-({4-[(2S)-2,4-dimethylpiperazin-1-yl]phenyl}amino)pyrazine-2-carboxamide]"
≤ 10,,"C=CC(=O)N1CCC[C@@H](Nc2nnc(C(N)=O)c(Nc3cc(C)ns3)n2)C1 [Example E-11, (R)-3-(1-acryloylpiperidin-3-ylamino)-5-(3-methylisothiazol-5-ylamino)-1,2,4-triazine-6-carboxamide]"
≤ 10,,"C=CC(=O)N[C@@H]1CCCN(c2cnc(C(N)=O)c(Nc3cc(C)ns3)n2)[C@@H]1C [Example E-97, 5-((2R,3R)-3-acrylamido-2-methylpiperidin-1-yl)-3-(3-methylisothiazol-5-ylamino)pyrazine-2-carboxamide]"
≤ 10,,"C[C@@H]1[C@H](NC(=O)c2ccc(C3CC3)cc2)CCCN1c1cnc(C(N)=O)c(Nc2ccc(N3CCN(C4COC4)C[C@@H]3C)cc2)n1 [Example E-142, 5-((2R,3R)-3-(4-cyclopropylbenzamido)-2-methylpiperidin-1-yl)-3-((4-((S)-2-methyl-4-(oxetan-3-yl)piperazin-1-yl)phenyl)amino)pyrazine-2-carboxamide]"
≤ 10,,"C=CC(=O)N1CCC[C@@H](Nc2nnc(C(N)=O)c(Nc3ccc(C(C)(C)C)cc3)n2)C1 [Example E-24, (R)-3-(1-acryloylpiperidin-3-ylamino)-5-(4-tert-butylphenylamino)-1,2,4-triazine-6-carboxamide]"
≤ 10,,"C[C@@H]1[C@H](NC(=O)c2ccc3c(c2)C(C)(C)OC3)CCCN1c1cnc(C(N)=O)c(Nc2cnn(C)c2)n1 [Example E-153, 5-((2R,3R)-3-(3,3-dimethyl-1,3-dihydroisobenzofuran-5-carboxamido)-2-methylpiperidin-1-yl)-3-((1-methyl-1H-pyrazol-4-yl)amino)pyrazine-2-carboxamide]"
,≤ 10,"C[C@@H]1[C@H](NC(=O)c2ccc(C3CC3)cc2Cl)CCCN1c1cnc(C(N)=O)c(Nc2ccc(N3CCN(C)CC3)cc2)n1 [Example A-180, 5-[(2R,3R)-3-(2-chloro-4-cyclopropylbenzamido)-2-methylpiperidin-1-yl]-3-{[4-(4-methylpiperazin-1-yl)phenyl]amino}pyrazine-2-carboxamide]"
≤ 10,,"C[C@@H]1[C@H](NC(=O)c2ccc(C3CC3)cc2)CCCN1c1cnc(C(N)=O)c(Nc2ccc(N3CCN(C)C[C@@H]3C)cc2)n1 [Example E-148, 5-((2R,3R)-3-(4-cyclopropylbenzamido)-2-methylpiperidin-1-yl)-3-((4-((S)-2,4-dimethylpiperazin-1-yl)phenyl)amino)pyrazine-2-carboxamide]"
,≤ 10,"CN1CCC(n2cc(Nc3nc(N4CCC[C@@H](n5ccc6cc(C7CC7)ccc6c5=O)C4)cnc3C(N)=O)cn2)CC1 [Example A-178, 5-[(3R)-3-(6-cyclopropyl-1-oxo-1,2-dihydroisoquinolin-2-yl)piperidin-1-yl]-3-{[1-(1-methylpiperidin-4-yl)-1H-pyrazol-4-yl]amino}pyrazine-2-carboxamide]"
,≤ 10,"CN1CCN(Cc2ccc(Nc3nc(N4CCC[C@@H](n5ccc6cc(C7CC7)ccc6c5=O)C4)cnc3C(N)=O)cc2)CC1 [Example A-111, 5-[(3R)-3-(6-cyclopropyl-1-oxo-1,2-dihydroisoquinolin-2-yl)piperidin-1-yl]-3-({4-[(4-methylpiperazin-1-yl)meth-yl]phenyl}amino)pyrazine-2-carboxamide]"

Structure (SMILES),"IC50 (E compounds, Table 17) [nM]","IC50 (Table 13, A compounds) [nM]"
"C=CC(=O)N1CCC[C@@H](Nc2nnc(C(N)=O)c(Nc3ccc(Cl)cc3)n2)[C@H]1C [Example E-7, 3-(((2R,3R)-1-acryloyl-2-methylpiperidin-3-yl)amino)-5-((4-chlorophenyl)amino)-1,2,4-triazine-6-carboxamide]",≤ 10,
"CC1(c2ccc(Nc3nc(N4CCC[C@@H](n5ccc6cc(C7CC7)ccc6c5=O)C4)cnc3C(N)=O)cc2)CCN(C2CCCC2)CC1 [Example A-141, 3-{[4-(1-cyclopentyl-4-methylpiperidin-4-yl)phenyl]amino}-5-[(3R)-3-(6-cyclopropyl-1-oxo-1,2-dihydroisoquinolin-2-yl)piperidin-1-yl]pyrazine-2-carboxamide]",,≤ 10
"C=CC(=O)N1CCC[C@@H](N(C)c2cnc(C(N)=O)c(Nc3ccc(C4(C)CCN(C5CCCC5)CC4)cc3)n2)C1 [Example E-103, (R)-5-((1-acryloylpiperidin-3-yl)(methyl)amino)-3-(4-(1-cyclopentyl-4-methylpiperidin-4-yl)phenylamino)pyrazine-2-carboxamide]",≤ 10,
